Like-named read-outs stand apart in the source and are kept apart here.
Legend:
[1] = tested on: EMT-6 cells; test: Cytotoxicity assay (MTS) in EMT-6 cells; type: cell-based, mouse
Description: Cell culture conditions. EMT-6 mouse breast tumor cells^39 were cultured in DMEM supplemented with 10% fetal bovine serum. The cells were maintained at 37° C. in a humidified incubator with a 5% CO2/95% air atmosphere.
In these experiments, a number of sigma ligands, having a wide range of affinities for σ1 and σ2 receptors, were evaluated for their efficacy to kill EMT-6 cells. […] Cells were incubated for 24 hours or 48 hours with various concentrations of the sigma ligands. Cytotoxicity and cell viability were quantified using the MTS assay.

[2] = tested on: MDA-MB-435 breast cancer cells; test: Cytotoxicity assay (MTS) in MDA-MB-435 cells; type: cell-based; conditions: Homo sapiens
Description: Cytotoxicity assay. The cytotoxic effect of the sigma ligands on EMT-6 cells was measured using the MTS colorimetric assay. MTS is bioreduced by cells into a colored formazan product with an absorbance at 490 nm. The quantity of the products is directly proportional to the number of viable cells in the culture. The MTS assay was performed using the CellTiter96Aqueous One Solution Assay (Promega, Madison, Wis.) according to the manufacturer's protocol. Briefly, EMT-6 cells were seeded at 2×10^3/well in 96-well plates on the day prior to treatment with the sigma ligand. Each sigma ligand was first dissolved in DMSO, and then serially diluted to get the desired concentration. The final concentration of DMSO in the cell culture medium was no more than 0.5%. After a 24 hour or 48 hour treatment with the various sigma ligands, cell death was assessed as follows. The CellTiter 96 AQueous One Solution Reagent was added to each well, and the plate was incubated for 2 hours at 37° C. The plate was then read at 490 nm in a Victor 3 plate reader (PerkinElmer Life and Analytical Sciences, Shelton, Conn.).
In these experiments, sigma ligands WC-II-26, SV119 and RHM-I-138 were evaluated for their efficacy to kill human MDA-MB-435 breast cancer cells. Cells were treated and analyzed as described for EMT-6 cells in Example 33. In these experiments cells were incubated for 24 hours or 48 hours with various concentrations of the sigma ligands.

[3] = tested on: caspase-3/7; test: Caspase-3/7 whole cell assay in MDA-MB-435 cells; type: cell-based, human; conditions: MDA-MB-435, 24 h
Description: FIG. 8 illustrates activation of caspase-3/7 in EMT-6 cells treated with the sigma-2 selective ligands, WC-II-26, SV119, or RHM-I-138. EMT6 cells were treated for 24 h with concentrations of 40 μM. MDA-MB-435 cells were treated with varying concentrations of sigma-2 selective ligands for 24 h. The highest level of caspase-3/7 activity was detected after 24 h in the presence of 80 μM SV119, 80 μM WC-II-26, and 50 μM RHM-I-138. The data are the mean±1 SEM of three independent experiments. p<0.05; * compared to the control.
Detection of intracellular cellular caspase-3/7 activity. The activation of endogenous caspase-3/7 by the sigma ligands was measured using the CellProbe HT caspase-3/7 whole cell assay (Beckman Coulter, Fullerton, Calif.). The cell permeable, nonfluorescent bisamide substrate, Z-DEVD-R110, was added to the intact cells to detect apoptosis. Upon specific cleavage by caspase-3/7, Z-DEVD-R110 is converted to a fluorescent compound, and the fluorescent signal can be measured as follows. After adding the substrate, Z-DEVD-R110, to the cells treated with a sigma ligand, the plate was incubated for an additional 1.5-2 hour, and the resulting fluorescence measured using a Victor 3 microplate fluorometer at excitation and emission wavelengths of 485 nm and 535 nm, respectively.

[4] = tested on: EMT-6 cells; test: TUNEL staining of DNA fragmentation in EMT-6 cells (microscopy, flow cytometry); type: cell-based, mouse; conditions: for TUNEL positive cells (flow cytometry): untreated control 2%; for DNA fragmentation, TUNEL staining in nuclei (fluorescence microscopy): EMT-6, WC-II-26 40 μM 48 h, SV119 100 μM 16 h, RHM-I-138 40 μM 16 h
Description: Detection of apoptosis by fluorescence microscopy. The DNA fragmentation occurring during apoptosis was detected by the TUNEL staining method using the in situ cell death detection kit purchased from Roche Applied Science (Indianapolis, Ind.). Briefly, after treatment of EMT-6 cells with the sigma ligands, cells were fixed for 1 hour with 4% paraformaldehyde in phosphate buffered saline at room temperature and permeabilized with 0.1% Triton X-100 for 2 minutes on ice. The cells were then labeled by incubation with the TUNEL reaction mixture for 1 hour at 37° C. and analyzed using a Nikon inverted fluorescence microscope with a FITC filter.
(§1) Detection and quantification of apoptosis by flow cytometry. The early stages of apoptosis are characterized by translocation of phosphatidyl serine (PS) from the inner surface of the plasma membrane to the outer surface of the membrane. Annexin V, a protein with high affinity for PS, was used to detect the externalization of PS. In these experiments cell death was quantified flow cytometrically using both an annexin V assay (Apoptosis Detection Kit, R &D Systems, Minneapolis, Minn.) and a TUNEL assay (Apodirect Kit, BD Biosciences Pharmingen, San Diego, Calif.). All of the data was collected and analyzed using a FACS scan flow cytometer (Becton Dickinson, Fullerton, Calif.).
To determine if the mechanism by which our σ2 selective ligands kill EMT-6 cells involves apoptosis, cells incubated with σ2 ligands were assayed by the TUNEL method. […] In these experiments, DNA fragmentation was detected by TUNEL staining and fluorescence microscopy (FIG. 6). Panel A: untreated cells. Panel B: Cells treated for 48 h with WC-II-26 (40 μM). Panel C: Cells treated for 16 h with SV119 (100 μM). Panel D: Cells treated for 16 h with RHM-I-138 (40 μM). […] At the designated times after treatment with WC-II-26, SV119 and RHM-I-138, TUNEL positive cells increased from 2% for the untreated control cells to 46%, 37% and 40%, respectively (FIG. 6B).

[5] = tested on: EMT-6 cells; test: Annexin V labeling by flow cytometry in EMT-6 cells; type: cell-based, mouse
From the text: as §1
An early step in the induction of apoptosis is the membrane inversion of phosphatidyl serine (PS), which can be detected by the binding of annexin V to the cell surface. In early apoptosis, the cell membrane integrity is still intact, and the fluorescent marker, 7AAD, is excluded from the cell. Therefore, early apoptotic cells are annexin V positive and 7AAD negative. As apoptosis progresses, the cell membrane integrity is lost, and the cells become annexin V positive and 7AAD positive. EMT-6 cells treated with WC-II-26, SV119, and RHM-1-138 were analyzed by flow cytometry, and both early apoptotic death and late apoptotic death were detected after treatment with these three σ2 selective ligands (FIG. 7A). The percentage of EMT-6 cells with positive annexin V staining was 96.6±2.7%, 73.5±2.4%, and 48±6.4% after treatment with WCII-26, SV119 and RHM-I-138, respectively (FIG. 7B).

[6] = target: σ1 receptor (Cavia porcellus, UniProt Q60492); test: σ1 receptor binding assay, [3H](+)-pentazocine; conditions: as listed in Table 2
Chain of σ1 receptor (Q60492 whole entry): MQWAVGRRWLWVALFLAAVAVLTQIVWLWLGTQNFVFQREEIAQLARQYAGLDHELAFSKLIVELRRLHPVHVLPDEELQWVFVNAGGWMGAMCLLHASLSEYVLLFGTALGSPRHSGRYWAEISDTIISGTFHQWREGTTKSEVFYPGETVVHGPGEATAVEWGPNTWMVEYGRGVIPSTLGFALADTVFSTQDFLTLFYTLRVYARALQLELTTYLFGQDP
Description: In vitro binding studies were conducted in order to determine the affinity of the target compounds at σ1 and σ2 receptors.
In this example, test compounds were dissolved in N,N-dimethylformamide (DMF), dimethylsulfoxide (DMSO) or ethanol and then diluted in 50 mM Tris-HCl, pH 7.4 buffer containing 150 mM NaCl and 100 mM EDTA. Membrane homogenates were made from guinea pig brain for σ1 binding assays and rat liver for σ2 binding assays. Membrane homogenates were diluted with 50 mM Tris-HCl buffer, pH 8.0, and incubated at 25° C. in a total volume of 150 μL in 96-well plates with the radioligand and test compounds with concentrations ranging from 0.1 nM to 10 μM. After incubation was completed, the reactions were terminated by the addition of 150 μL of ice-cold wash buffer (10 mM Tris-HCl, 150 mM NaCl, pH 7.4) using a 96-channel transfer pipette (Fisher Scientific, Pittsburgh, Pa.), and the samples harvested and filtered rapidly through 96-well fiberglass filter plate (Millipore, Billerica, Mass.) that had been presoaked with 100 μL of 50 mM Tris-HCl buffer, pH 8.0, for 1 h. Each filter was washed three times with 200 μL of ice cold wash buffer.
Ki values were calculated using the method of Cheng and Prusoff20 and represent mean values±SEM.

[7] = Mus musculus, EMT6, 24 h, read-out: EC50 (μM, 24 hours), EMT-6, MTS assay, 24 hours
[8] = Mus musculus, EMT6, 48 h, read-out: EC50 (μM, 48 hours), EMT-6, MTS assay, 48 hours
[9] = read-out: IC50 (μM), MDA-MB-435, 24 hours
[10] = MDA-MB-435, 48 hours, read-out: IC50 (μM, 48 hours)

SMILES | EC50 [1, 7] [µM] | EC50 [1, 8] [µM] | EC50 ([1]; read-out: EC50 (μM, 48 hours), EMT-6, MTS assay, 48 hours) [µM] | IC50 [2, 9] [µM] | IC50 [2, 10] [µM] | concentration at which the highest level of caspase-3/7 activity was detected [3] [µM] | TUNEL positive cells (flow cytometry) ([4]; EMT-6, 40 μM, 16 h) [%] | DNA fragmentation, TUNEL staining in nuclei (fluorescence microscopy) [4] | percentage of EMT-6 cells with positive annexin V staining ([5]; 40 μM, 16 h) [%] | Ki ([6]; read-out: Ki for σ1) [nM] | TUNEL positive cells (flow cytometry) ([4]; EMT-6, 100 μM, 16 h) [%] | percentage of EMT-6 cells with positive annexin V staining ([5]; 100 μM, 16 h) [%] | Ki ([6]; Ki for σ1 (nM)) [nM] | TUNEL positive cells (flow cytometry) ([4]; EMT-6, 40 μM, 48 h) [%] | percentage of EMT-6 cells with positive annexin V staining ([5]; 40 μM, 48 h) [%]
O[C@@H](CN1C2CCC1CC(c1ccccc1)C2)c1cccc(Br)c1 (stereo partly shown) [RHM-I-138] | 32.5 ± 3.5 | 16 | 16.5 ± 2.1 | 26.7 ± 4.3 | 19 ± 1.8 | 50 | 40 | positive TUNEL staining | 48±6.4 | 544 |  |  |  |  | 
COc1ccc(C)cc1NC(=O)OC1CC2CCCC(C1)N2CCCCCCN (stereo not shown) [SV119] | 16 ± 1.4 | 11 |  | 36.7 ± 3.3 | 20.6 ± 2.7 | 80 |  | positive TUNEL staining |  |  | 37 | 73.5±2.4 | 1450 |  | 
COc1ccc(C)cc1NC(=O)O[C@H]1C[C@H]2CCC[C@@H](C1)N2Cc1ccc(N(C)C)cc1 [WC-II-26] | 42.5 ± 3.5 | 12.5 |  | 51.6 ± 6 | 43.2 ± 2 | 80 |  | positive TUNEL staining |  |  |  |  | 5570 | 46 | 96.6±2.7

— patent US8168650B2, “Therapeutic uses of bicyclic ligands of sigma 2 receptor” (priority 2006, dated 2012)
